Data as given in article PMC7660689, “Catechol-Type Flavonoids from the Branches of Elaeagnus glabra f. oxyphylla Exert Antioxidant Activity and an Inhibitory Effect on Amyloid-β Aggregation” (Molecules, 2020).

Experiments:
[1] = ABTS radical scavenging assay; conditions: for ABTS radical scavenging activity: compounds at 100 μM; for Concentration at which ABTS radical scavenging activity reached 100% / IC50: isolated compounds; for IC50: 1.5625-100 µM
Method: ABTS and DPPH radical scavenging assays were performed with reference to the modified method described in previously published reports to examine the antioxidant activities. […] Subsequently, the reactant was diluted 25-fold to adjust its absorbance at 734 nm to 0.7 by using a spectrophotometer (Benchmark Plus, Bio-Rad, Hercules, CA). […] The absorbance was measured at 517 nm. Ascorbic acid was used as a positive control for antioxidative activity.

Aβ1–42 peptides = target: T1, Aβ1–42 peptides (Homo sapiens, UniProt P05067); assay: Thioflavin T (ThT) Aβ aggregation assay; assay type: biochemical; conditions: for Inhibition of Aβ aggregation compared with positive control morin: compounds at 100 μM, morin 100 μM; for IC50: isolated compounds, 6.25-100 µM, ThT fluorescence, read-out: Inhibition of Aβ aggregation IC50
T1 construct: purchased AnaSpec
T1 sequence (P05067 672-713 limits assumed): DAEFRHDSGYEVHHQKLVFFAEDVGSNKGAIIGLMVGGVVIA
Method: To measure the inhibitory effect on Aβ1–42 aggregation, the SensoLyte® Thioflavin T (ThT) β-Amyloid aggregation kit (AnaSpec, Fremont, CA, USA) was used according to the modified manufacturer’s instructions. This assay is based on the property of ThT dye that increases fluorescence when bound to the aggregates of Aβ1–42 peptides. The detailed protocol is described in a previous report. Morin (100 μM) was used as a positive control for the inhibition of Aβ aggregation. Experiments were performed in triplicate and independently repeated three times. The inhibition rate (%) of Aβ aggregation was calculated according to the following equation:(1) Inhibition of Aβ aggregation %=1−Fluorescence of Aβ−treated sample/Fluorescence of untreated sample×100

[2] = DPPH radical scavenging assay; conditions: for DPPH radical scavenging activity: concentrations from 1.5625 to 100 µM; for IC50: isolated compounds, 1.5625-100 µM
Method: ABTS and DPPH radical scavenging assays were performed with reference to the modified method described in previously published reports to examine the antioxidant activities. In the ABTS assay, 7 mM ABTS aqueous solution and 2.45 mM potassium persulfate were reacted for 12–16 h in the dark at room temperature to prepare the ABTS^•+ solution. Subsequently, the reactant was diluted 25-fold to adjust its absorbance at 734 nm to 0.7 by using a spectrophotometer (Benchmark Plus, Bio-Rad, Hercules, CA). The sample solution (100 μL) and ABTS^•+ solution (100 μL) were mixed and incubated for 5 min at room temperature in the dark.
To determine the DPPH radical scavenging activity, the sample solution (100 μL) and 0.15 mM DPPH solution (100 μL) were mixed and incubated for 3 h at room temperature in the dark. The absorbance was measured at 517 nm. Ascorbic acid was used as a positive control for antioxidative activity. The radical scavenging activity (%) was calculated using the following equation:(2) Radical scavenging activity %=1−Absorbance of sample/Absorbance of control × 100

SMILES | ABTS radical scavenging activity [1] | Inhibition of Aβ aggregation compared with positive control morin (Aβ1–42 peptides) | IC50 (Aβ1–42 peptides) | Concentration at which ABTS radical scavenging activity reached 100% [1] | IC50 [1] | DPPH radical scavenging activity [2] | IC50 [2] | melting point
O=C(O)c1ccc(O)cc1 [Compound 1, 4-hydroxybenzoic acid] | < 66% | – | – | – | – | – | – | –
O=C(O)c1ccccc1O [Compound 2, salicylic acid] | < 66% | – | – | – | – | – | – | –
Oc1cc(O)c2c(c1)O[C@H](c1ccc(O)c(O)c1)[C@@H](O)[C@@H]2c1c(O)cc(O)c2c1O[C@H](c1ccc(O)c(O)c1)[C@@H](O)C2 [Compound 8, procyanidin B3] | – | comparably to morin | 14.6 µM | 12.5 µM | 3.21 µM | < 52% | 54.9 µM | –
Oc1cc(O)c2c(c1)O[C@H](c1ccc(O)c(O)c1)[C@@H](O)[C@@H]2c1c(O)cc(O)c2c1O[C@H](c1ccc(O)c(O)c1)[C@H](O)C2 [Compound 9, procyanidin B4] | – | comparably to morin | 32.6 µM | 12.5 µM | 3.44 µM | < 52% | > 100 µM | –
O=C(C=Cc1ccc(O)cc1)OCC1OC(Oc2c(-c3ccc(O)c(O)c3)oc3cc(O)cc(O)c3c2=O)C(O)C(O)C1O (stereo not drawn) [Compound 13, helichrysoside] | – | comparably to morin | 44.5 µM | 25 µM | 4.61 µM | < 52% | > 100 µM | –
C=C(C)[C@@H]1CC[C@]2(C(=O)O)CC[C@]3(C)C(CCC4[C@@]5(C)CC[C@H](OC(=O)/C=C/c6ccc(O)c(O)c6)C(C)(C)C5CC[C@]43C)C12 (stereo partly drawn) [Compound 14, betulinic acid-3-O-trans-caffeate] | < 66% | – | – | – | – | – | – | 270 °C
C[C@@H]1CC[C@]2(C(=O)O)CC[C@]3(C)C(=CCC4[C@@]5(C)CC[C@H](OC(=O)/C=C/c6ccc(O)c(O)c6)C(C)(C)C5CC[C@]43C)C2[C@H]1C (stereo partly drawn) [Compound 15, ursolic acid-3-O-trans-caffeate] | < 66% | – | – | – | – | – | – | > 300 °C
